Measurements: patent publication US20110268729A1, “TREATMENT OF AMYOTROPHIC LATERAL SCLEROSIS BY NOGO-A-ANTAGONIST” (priority 2008, published 2011)

Test system: SOD1^G93A mice
Experiment: In vivo ALS model muscle physiology study with 2A10 and riluzole
Design: species or system mouse
Method: Fresh solutions were prepared once a week with the total consumed volume measured in order to ensure a constant daily and weekly dose.

Nc1nc2ccc(OC(F)(F)F)cc2s1 [Riluzole, 2-Amino-6-(trifluoromethoxy)benzothiazole]
TA maximum tetanic force (day 90, relative to SOD1-B vehicle group, riluzole 30 mg/kg p 0.0607, anti-Nogo-A 30 mg/kg p 0.1219, combination p 0.039): failed to reach statistical significance
TA time to 1/2 relaxation (day 90, vs SOD1 vehicle, riluzole plus 3 mg/kg anti-Nogo-A p value 0.0212): trend to normalisation
